Assay results as given in PubChem BioAssay (NCI).
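Cells were grown in 96-well plates and exposed to each compound for 48 hours at five concentrations; endpoints were interpolated linearly between bracketing concentrations, or set to the highest concentration if not reached. GI50: concentration for 50% inhibition of growth. TGI: total growth inhibition.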

Experiments:
Experiment in all cases: NCI-60 cell line screen, 48 h
[1] = tested on: EKVX NSCLC
[2] = tested on: SK-MEL-28 melanoma
[3] = tested on: LOX IMVI melanoma
[4] = tested on: NCI-H522 lung
[5] = tested on: OVCAR-3 ovarian
[6] = tested on: HT29 colon
[7] = tested on: K-562 leukemia
[8] = tested on: SK-OV-3 ovarian
[9] = tested on: SF-268 CNS
[10] = tested on: U251 CNS
[11] = tested on: NCI-H460 lung
[12] = tested on: HL-60(TB) leukemia
[13] = tested on: MOLT-4 leukemia
[14] = tested on: A498 renal
[15] = tested on: KM20L2 colon
[16] = tested on: HOP-18 NSCLC
[17] = tested on: LXFL 529 NSCLC
[18] = tested on: SN12C renal
[19] = tested on: NCI-H226 lung
[20] = tested on: A549 NSCLC
[21] = tested on: UO-31 renal
[22] = tested on: OVCAR-5 ovarian
[23] = tested on: NCI-H23 lung
[24] = tested on: M14 melanoma
[25] = tested on: CCRF-CEM leukemia
[26] = tested on: COLO 205 colon

CC(=O)[CH-]C(=O)c1ccccc1.CC(=O)[CH-]C(=O)c1ccccc1.CC(C)CCCC(C)[C@H]1CCC2[C@@H]3CC=C4C[C@@H]([O-])CC[C@]4(C)C3CC[C@@]21C.CC[O-].[Ti+4] (stereo partly specified)
TGI [1]: > 100 µM | GI50 [2]: 30.3 µM | TGI [2]: > 100 µM | GI50 [3]: 81.1 µM | TGI [3]: > 100 µM | GI50 [4]: 26.3 µM | TGI [4]: 71.2 µM | GI50 [5]: 49.7 µM | TGI [5]: > 100 µM | GI50 [6]: 64 µM | TGI [6]: > 100 µM | GI50 [7]: 33.1 µM | TGI [7]: > 100 µM | GI50 [8]: > 100 µM | TGI [8]: > 100 µM | GI50 [9]: 50.2 µM | TGI [9]: > 100 µM | GI50 [10]: 48.7 µM | TGI [10]: > 100 µM | GI50 [11]: 44.8 µM | TGI [11]: > 100 µM | GI50 [12]: 42.3 µM | TGI [12]: > 100 µM | GI50 [13]: 16.4 µM | TGI [13]: 63.1 µM | GI50 [14]: 53.1 µM | TGI [14]: > 100 µM | GI50 [15]: 67.8 µM | TGI [15]: > 100 µM | GI50 [16]: 76 µM | TGI [16]: > 100 µM | GI50 [17]: 33.1 µM | TGI [17]: > 100 µM | GI50 [18]: 94.5 µM | TGI [18]: > 100 µM | GI50 [19]: > 100 µM | TGI [19]: > 100 µM | GI50 [20]: > 100 µM | TGI [20]: > 100 µM | GI50 [21]: 29.4 µM | TGI [21]: > 100 µM | GI50 [22]: > 100 µM | TGI [22]: > 100 µM | GI50 [23]: 26.9 µM | TGI [23]: 84.2 µM | GI50 [24]: 48.3 µM | TGI [24]: > 100 µM | GI50 [25]: 35.5 µM | TGI [25]: > 100 µM | GI50 [26]: 48.5 µM | TGI [26]: > 100 µM
